Results: US7829575B2, “Methods for treating androgen receptor related disorders” (University of Cincinnati, priority 2006, dated 2010)

Tests used:
Assay type in all cases: cell-based
LNCaP cells [1] = test: PSA and AR mRNA expression, RT-PCR; details: 24 hr
Description: In FIG. 7 LNCaP or 22Rv1 cells (A) are treated for 24 hr with DL3 and total RNA is extracted and analyzed by real-time RT-PCR. […] PSA mRNA in LNCaP cells is approximately 20 fold higher than that in 22Rv1 cells (FIG. 7A).

LNCaP cells [2] = test: Expression of AR-regulated genes, quantitative RT-PCR (Table 1); details: data not shown
LNCaP-ARR2-GFP cells = test: AR-regulated GFP expression in LNCaP-ARR2-GFP cells; details: SMEM, absence of DHT; DL3 at 25 nM or 20 μM
22Rv1 cells = test: Cellular PSA and AR protein, western blotting; details: 24 hr
AR N/C interaction = target: T1, AR N/C interaction (Homo sapiens, UniProt P10275); test: AR N/C interaction, mammalian two-hybrid luciferase in HeLa cells; details: 24 hr
T1 construct: the AR LBD and GAL4 DBD fusion protein (GAL4-LBD); expressed in transfected cells; host or cells: HeLa
T1 sequence (P10275 669-900 limits assumed): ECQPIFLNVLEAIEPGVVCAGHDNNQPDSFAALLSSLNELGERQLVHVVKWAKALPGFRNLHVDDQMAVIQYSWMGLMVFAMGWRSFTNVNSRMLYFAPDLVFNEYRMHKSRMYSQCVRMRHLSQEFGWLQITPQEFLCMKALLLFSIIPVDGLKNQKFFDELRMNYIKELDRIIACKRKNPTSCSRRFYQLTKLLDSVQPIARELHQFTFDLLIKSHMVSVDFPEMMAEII
Description: This is done in a mammalian two-hybrid system, in which HeLa cells are cotransfected with vectors encoding the luciferase reporter driven by a tandem GAL4-responsive elements (GAL4-luc), the AR LBD and GAL4 DBD fusion protein (GAL4-LBD), and AR NTD and VP16 transactivation domain fusion protein (VP16-NTD).

[3] = tested on: LAPC-4 cells (wildtype AR); test: Cellular PSA and AR protein, western blotting
LNCaP cells [4] = test: AR protein stability and hsp70/hsp90 expression, western blotting
Description: Cell lysates are prepared and analyzed by western blotting. […] To further determine how DL3 downregulates AR, LNCaP cells are incubated for 24 hr with DL3 in the absence or presence of proteasome inhibitor MG132.
Hsp70 and hsp90 are key molecular chaperones in cells. Along with several co-chaperones, hsp70 and hsp90 play critical roles in folding and assembling AR to a high-affinity ligand binding conformation and in regulating AR activation that occurs following hormone binding. Therefore, the possibility of whether the downregulation of AR protein by DL3 is mediated by its effects on hsp70 or hsp90 expression is investigated.
(§1) Thus, the effects of DL3 on hsp70 expression are further investigated in several other prostate cancer cell lines, including LAPC-4 (wildtype AR), 22Rv1 (mutant AR), and AR-negative cell lines PC-3, DU-145, PWE1-NB14 (ATCC), and PWE1-NB26 (ATCC). […] In FIG. 10, LAPC-4 (in SMEM) and all other (in CMEM) cells are treated for 24 hr and analyzed by western blotting. LNCaP cells are transfected for 24 hr with hsp70 or its control vector, then treated for 24 hr.

LNCaP cells [5] = test: Cellular PSA and AR protein, western blotting; details: 24 hr
Description: In FIG. 6, cellular PSA and AR are analyzed by western blotting androgen-starved LNCaP cells.

LNCaP cells [6] = test: PSA and AR mRNA expression, RT-PCR; details: 6 hr
LNCaP-AI cells = test: Growth of androgen-independent LNCaP-AI cells, MTT; details: SMEM, four days
Description: See, for example, FIG. 3 where LNCaP-A1 cells in SMEM and 22Rv1 cells in CMEM are cultured for four days with DL3, followed by MTT staining and 22Rv1 cells are obtained from ATCC.

LNCaP-Nilut-R cells = test: PSA secretion, ELISA of culture supernatant; details: 1 nM DHT, 10 μM, 48 hr (FIG. 5D)
Description: (§2) For the following discussion, see FIG. 5, where androgen-starved LNCaP, LNCaP-Flut-R, or LNCaP-Nilut-R cells are plated into 96-well plates at 2×10^4 cells/wells in SMEM and treated for 48 hr. PSA in the culture supernatant is determined by using an enzyme-linked immunosorbent assay (ELISA) kit. PSA levels are normalized by cell density. […] The DHT-induced production of PSA is reduced by approximately 50% in cells treated with 5 μM of DL3 (FIG. 5B). […] PSA production is elevated in LNCaP-Flut-R and LNCaP-Nilut-R cells compared with that in their parental cells (FIG. 5D).

LNCaP-Flut-R cells = test: PSA secretion, ELISA of culture supernatant; details: 1 nM DHT, 10 μM, 48 hr (FIG. 5D)
Description: as §2

[7] = tested on: LAPC-4, 22Rv1, PC-3, DU-145, PWE1-NB14, PWE1-NB26, PC-3AR cells; test: hsp70 expression in other prostate cancer cell lines, western blotting
Description: as §1, with “Downregulation of hsp70 expression by DL3 is AR-dependent. Thus,” for “Thus,”, “hr. Thus, the above observation is further validated in PC-3 cells stably transfected with wildtype AR (PC-3AR). […] On the other hand, overexpression of hsp70 in LNCaP cells elevates endogenous AR protein levels (FIG. 10, panel C, right). […] Thus, the downregulation of hsp70 in prostate cancer cells by DL3 is in an AR-dependent event.” for “hr.”

[8] = 20 μM DL3, time course to 48 hr (FIG. 9A)

CC(C)(C)c1ccc(OCCSc2nc(=O)cc(N)[nH]2)cc1 [DL3, 6-amino-2-(2-4-tert-butyl-phenoxy)-ethylsulfanyl-1H-pyrimidin-4-one]
DHT-stimulated PSA mRNA expression (LNCaP cells [1]; 20 μM, 1 nM DHT): abolishes
basal level of PSA mRNA (LNCaP cells [1]; 20 μM, androgen-starved): significantly reduces
expression of AR mRNA (LNCaP cells [1]; 1 nM DHT, 20 μM DL3 or Bical): partially downregulated
expression of PSA mRNA (LNCaP cells [1]; CMEM, dose response (FIG. 7A)): inhibits the expression of PSA mRNA
PSMA expression at the protein level (LNCaP cells [2]): Enhancement of PSMA expression
GFP expression (AR agonist activity) (LNCaP-ARR2-GFP cells): does not induce GFP expression
expression of AR protein (22Rv1 cells; 5 and 10 μM): not significantly altered
expression of AR protein (22Rv1 cells; 20 and 40 μM): reduced
PSA protein expression (22Rv1 cells; CMEM, increasing concentrations): inhibitory effects
DHT-induced N/C interaction (AR N/C interaction; 1 nM DHT, different concentrations): not significantly altered
luciferase activity (N/C interaction), compound alone (AR N/C interaction; no DHT): not significantly altered
AR protein expression ([3]; 20 μM, 24 hr): similarly reduced
DHT-induced PSA protein expression ([3]; SMEM, 1 nM DHT, 20 μM DL3, 24 hr): inhibitory effects
time after exposure at which AR downregulation can be observed (LNCaP cells [4]; 20 μM): 8 h
time after treatment at which reduction of hsp70 starts (LNCaP cells [4]; 20 μM DL3): 4 h
expression of hsp70 (LNCaP cells [4]; [8]): reduced
expression of hsp90 (LNCaP cells [4]; [8]): not
partial reversal by DHT of the CHX-diminished AR expression (LNCaP cells [4]; 24 hr with DHT, DL3 and CHX (FIG. 9B, lane 7 vs. lane 6)): also blocked
AR downregulation by DL3 under overexpression of hsp70 (LNCaP cells [4]; LNCaP cells transfected 24 hr with hsp70, then treated 24 hr): not able to protect AR downregulation
elevation of AR and PSA expression by DHT (LNCaP cells [4]; SMEM, 24 hr (FIG. 9B, lane 4 vs. lane 3)): blocked
AR protein levels (LNCaP cells [4]; dose-dependent): downregulates AR protein levels
expression of AR protein (LNCaP cells [5]; 5 and 10 μM): not significantly altered
expression of AR protein (LNCaP cells [5]; 20 and 40 μM): reduced
DHT-induced PSA protein expression (LNCaP cells [5]; SMEM, Flut, Nilut, Bical at 20 μM): dose-dependently reduced
AR mRNA expression (LNCaP cells [6]): not significantly altered
growth of androgen-independent LNCaP-AI cells (LNCaP-AI cells): suppressed
PSA production in LNCaP-Nilut-R cells (LNCaP-Nilut-R cells): inhibits PSA production
PSA production in LNCaP-Flut-R cells (LNCaP-Flut-R cells): inhibits PSA production
downregulation of hsp70 expression across AR-positive and AR-negative cell lines ([7]; LAPC-4, 22Rv1 vs AR-negative PC-3, DU-145, PWE1-NB14, PWE1-NB26, 24 hr): found in only the cells expressing AR
hsp70 expression in PC-3AR cells ([7]; PC-3 stably transfected with wildtype AR): downregulates hsp70 expression
